Test results from US9254266B2, “Inhibiting surface enhanced crystallization of amorphous pharmaceuticals with ultrathin coatings” (Wisconsin Alumni Research Foundation, priority 2007, dated 2016).
In brackets after ≈: the same amount, converted by molar mass.

Experiments:
Type in all cases: physicochemical
[1] = Flowability measurements and tablet properties of IMC powder
Description: Flowability measurements. […] To determine tapped density and compressibility, approximately 1.5 g of powder was poured into a 10-ml cylinder. The initial volume (V0) yielded the initial bulk density D0 (“fluff or poured bulk density”). The powder was then tapped for 5 minutes to obtain the final bulk volume (Vf) and the final bulk density Df (“equilibrium, tapped or consolidated bulk density”). The percent (%) compressibility (Carr's Index) was calculated from (Df−D0)/Df×100, which is another measure of powder flowability (% compressibility higher than 40% is thought to indicate a non-flowing, cohesive powder; % compressibility lower than 28% is thought to indicate a fluid to free-flowing powder).
Uncoated amorphous IMC powder was cohesive and flowed with difficulty, while the coated powder flowed more easily. For the uncoated powder, the angle of repose was 36°, signifying acceptable flowability.

[2] = Zeta potential of IMC particles; conditions: particles suspended in 0.01 M NaCl
Description: Zeta potentials were measured with a ZetaSizer 3000HSA (Malvern Instruments, USA). Sample particles (ca. 5 mg) were dispersed in 0.01 M NaCl. […] Each reported result was the average of three measurements.
Before coating amorphous IMC by this method, the sign of its surface charge in a coating solution was determined. […] (The pH of the coating solutions was 6.1 (PDDA) and 6.4 (PSS)). […] Coating with one layer of PDDA reversed the surface charge to positive (ζ-potential=+37 mV); adding the next layer (PSS) reversed the surface charge to negative again (ζ-potential=−32 mV); and so on.

[3] = Surface crystallization and crystal growth of amorphous IMC films (light microscopy)
Description: Deposition of gold coatings. A Denton Vacuum Desk II (Denton Vacuum, Moorestown, N.J.) was used to deposit a gold coating on amorphous IMC. […] Under these conditions, the deposition rate was ca. 10 nm/30 s, providing a gold coating of about 10 nm in thickness. […] The coated film was golden and reflective. Deposition of LbL polyelectrolyte coatings on amorphous films. […] (Tg−20° C.), and gently removing one cover glass. To coat several films at once, they were loaded into a Teflon rack and immersed into the PDDA solution for 15 minutes. The samples were washed twice in Milli-Q water to remove the excess PDDA and immersed in the PSS solution. This procedure was repeated until the desired number of polymer layers was reached. The coated samples were left on a Whatman filter paper to remove the excess liquid on the slide and dried in a vacuum (0.4 mTorr) at 22° C. for 3 hrs. X-ray powder diffraction (XRPD). XRPD was performed with a Bruker D8 Advance X-ray diffractometer, which was equipped with a CuKα source (λ=1.54056 Å) operating at a tube load of 40 kV and 40 mA. The divergence slit size was 1 mm, the receiving slit, 1 mm, and the detector slit, 0.1 mm. Data was collected by a high-resolution Sol-X detector. Each sample was scanned between 2 and 40° (2θ) with a step size of 0.02° and a maximum scan rate of 3 s/step. The NIST standard SRM 1976 was used to check the instrument's calibration and performance. Samples of small quantities were analyzed on a Si(510) zero-background holder. Polarized light microscopy (PLM) was performed with a Nikon Optiphot Pol 2 microscope equipped with an Olympus video camera. The video image was calibrated against a 1-mm stage micrometer (100 divisions). Differential scanning calorimetry (DSC) was conducted in crimped Al pans using a TA Instruments Q1000 unit under 50 mL/min N2 purge. […] (Tg−2° C.). […] The crystals were birefringent. […] All samples were tested at 40° C. in a desiccator. […] Moreover, coating a partially crystallized sample with gold inhibited further crystallization. […] The set of experiments was again performed with amorphous IMC films prepared on microscope cover glasses. […] By contrast, only a small percentage of a coated surface was covered by crystals (white spots in the pictures) under the same conditions (FIG. 4b). Moreover, the crystals that did form on the coated surface grew much more slowly than those on the uncoated surface.

[4] = Intrinsic dissolution rate (IDR), USP Dissolution Apparatus II; conditions: 0.1 M phosphate buffer pH 7.2, 37° C.; for IDR: 50 RPM, first 15 minutes, no storage
Description: Measurement of intrinsic dissolution rate (IDR). The IDR was measured using a USP Dissolution Apparatus II (rotating paddle, model RC-8D, Vanguard, Spring, Tex.) following standard procedures. […] Tablets without visible chipping or surface imperfection were used for dissolution measurement. Each tablet used for IDR measurement was coated on one side and around the rim with water-impervious shellac (clear nail polish) that contained as the primary ingredient tosylamide epoxy resin. Conditions of the IDR measurement were as follows: 500 ml of 0.1 M phosphate buffer (pH 7.2), 50 RPM of paddle speed, 1 inch between the tablet and the paddle, and 37° C. Samples were taken every 2.5 minutes up to 15 minutes, every 5 minutes up to 30 minutes, and every 10 minutes up to 60 minutes. Each sample (2 ml) of the solution was drawn with a syringe and filtered through a 0.22-μm filter needle. The sample's concentration was determined by UV-visible spectrometry at 318 nm. The analyzed solution was returned to the dissolution vessel to maintain the constant volume. For each amorphous IMC material studied (with and without coating, with and without aging), the IDR measurement was performed six times with three independently prepared materials as described above.
As shown above in FIG. 4, because one layer of PDDA was nearly as effective as several layers of PDDA and PSS in inhibiting surface crystallization, this example used materials coated with a single layer of PDDA. Moreover, thinner coatings are expected to maximize the rate of dissolution. […] For comparison, the IDR of γ IMC was also measured. Each data point in FIG. 8 is the average of six measurements. For each sample of amorphous IMC (uncoated or coated), the six measurements were performed with three independently prepared materials (including melting, grinding, coating, and tableting). […] Similarly, it is assumed that the IDR of amorphous IMC was measured under a sink condition.

[5] = Crystallization of amorphous IMC powder on storage (XRPD, DSC)
Description: The particles were sieved through to a 75 μm screen, transferred to a 200 ml beaker containing 100 ml of the PDDA solution, and kept in contact with the solution for 15 minutes. The suspension was filtered through #2 Whatman filter paper to remove the supernatant and washed with Milli-Q water. Vacuum was then applied to dry the particles for at least 3 hrs.
X-ray powder diffraction (XRPD). XRPD was performed with a Bruker D8 Advance X-ray diffractometer, which was equipped with a CuKα source (λ=1.54056 Å) operating at a tube load of 40 kV and 40 mA. The divergence slit size was 1 mm, the receiving slit, 1 mm, and the detector slit, 0.1 mm. Data was collected by a high-resolution Sol-X detector. Each sample was scanned between 2 and 40° (2θ) with a step size of 0.02° and a maximum scan rate of 3 s/step. The NIST standard SRM 1976 was used to check the instrument's calibration and performance. Samples of small quantities were analyzed on a Si(510) zero-background holder. Polarized light microscopy (PLM) was performed with a Nikon Optiphot Pol 2 microscope equipped with an Olympus video camera. The video image was calibrated against a 1-mm stage micrometer (100 divisions). Differential scanning calorimetry (DSC) was conducted in crimped Al pans using a TA Instruments Q1000 unit under 50 mL/min N2 purge.
The larger the exotherm, the greater the amorphous fraction before DSC analysis. […]

[6] = Water contact angle on amorphous IMC film; conditions: 22° C., 70% R.H.
Description: Contact Angle Measurements. The measurements were performed at 22° C. and 70% R.H. using a method similar to that of Zografi and Tam. […] The water droplet thus formed was about 3 mm in diameter. A side view of the droplet was recorded with a digital camera and the contact angle was measured from the image (Image J1.34 S). Each amorphous film was measured three times at different sites. Three samples were measured for each coating condition.
The water contact angle characterizes the wetting ability of the surface. The measurement was performed with amorphous IMC films on microscope cover glasses. […] The contact angle increased and decreased accordingly with additional layers of PDDA and PSS.

[7] = Solubility of γ IMC in buffer; conditions: aqueous buffer, thermodynamic from solid; 0.1 M PBS buffer pH 7.2, 37° C.

Structure (SMILES) | % Compressibility ([1]; Carr's Index, (Df−D0)/Df×100) [%] | angle of repose ([1]; powder) [°] | angle of repose ([1]; powder sieved through 75 μm screen) | Tapped Density ([1]; powder tapped for 5 minutes) [g/mL] | Tablet Bulk Density ([1]; tablets made with a Carver press) [g/mL] | Tablet Porosity ([1]; true density of 1.31 g/cm^3 used) [%] | ζ-potential [2] | surface crystallization in vacuum compared with desiccated ambient air ([3]; 0.4 mTorr and 22° C.) | surface covered by crystals after 20 days ([3]; 15 μm films on cover glasses, 20 days at 40° C.) | crystallization of film between two cover glasses ([3]; below Tg (42° C.), no free surface) | appearance of crystals at free surface ([3]; one cover glass removed, 40° C.) | coverage of free surface with crystals on storage ([3]; uncoated film, 40° C.) | time until tablet began crystallizing to α IMC in the dissolution medium [4] | IDR ([4]; listed as Uncoated) [mg/cm^2/min] | IDR after 2 d ([4]; after 2 days of storage at 40° C.) [mg/cm^2/min] | solid state of powder after 2 days (PXRD) ([5]; 2 days at 40° C., powder sieved through 75 μm) | DSC crystallization exotherm after 2 days ([5]; 2 days of storage at 40° C.) | water contact angle [6] [°] | IDR [4] [mg/cm^2/min] | solubility [7] [µg/mL]
COc1ccc2c(c1)c(CC(=O)O)c(C)n2C(=O)c1ccc(Cl)cc1 [amorphous IMC, 1-(p-chlorobenzoyl)-5-methoxy-2-methylindole-3-acetic acid] | 42 ± 1 | 36 | 36.1 ± 2.3 | 0.52 ± 0.03 | 1.07 ± 0.03 | 18 ± 2 | −41 mV | same rate of crystal growth | completely covered with crystals | does not crystallize for months | crystals appear in days | After two or three weeks, the surface was fully covered with crystals | approximately 20 minutes | 0.56 | 0.10 | crystallized into γ IMC | disappears | 44 | – | –
COc1ccc2c(c1)c(CC(=O)O)c(C)n2C(=O)c1ccc(Cl)cc1 [γ IMC, 1-(p-chlorobenzoyl)-5-methoxy-2-methylindole-3-acetic acid] | – | – | – | – | – | – | negatively charged | – | – | – | – | – | – | – | – | – | – | – | 0.07 | 1500 (≈ 4.19 mM)
